Bounds are passed on as bounds.

The conditions of data set [1]: cited from earlier work.
Data set [2] can be described thus: Solubility of NUC-7738 in a range of solvents. It is filed as physicochemical.
Data set [3] is described as follows: NUC-7738 solutions in NMP, DMSO, DMA diluted with saline, observed for precipitation. The format is physicochemical. The protocol: (§1) Even a solubiliser is not effective, in the absence of a polar aprotic solvent, at retaining NUC-7738 in solution in aqueous conditions. The solutions prepared above were assayed for NUC-7738 content and purity on being formed and also after 48 h. […] In a further experiment, the […] concentration of NUC-7738 in solvents that could be diluted with saline without precipitation was determined. Solutions of NUC-7738 (mixture of diastereoisomers) at various concentrations in NMP, DMSO and DMA were prepared and 100 µL of the solutions were added to 2.40 mL saline.

A short description of data set [4]: NUC-7738 concentrate mixed with Tween 80 and added to saline, checked by eye for precipitation; assay and purity after 48 h. The format is physicochemical. The protocol:
50 µL of a 100 mg/mL concentrate of NUC-7738 (mixture of diastereoisomers) in a range of solvents (DMA, DMSO, NMP, ethanol, benzyl alcohol) was mixed with 50 µL of Tween® 80 and added to 1.150 mL saline and the resultant solutions were checked by eye for precipitation of NUC-7738. Similarly a 50 µL concentrate of NUC-7738 (mixture of diastereoisomers) in Tween® 80 was mixed with 50 µL water for injection and then added to 1.150 mL saline.
as §1

Where [5] appears, read: solutions of Table 8, after 48 h versus on being formed.

Regarding `C[C@H](NP(=O)(OC[C@H]1O[C@@H](n2ccc(N)nc2=O)C(F)(F)[C@@H]1O)Oc1ccccc1)C(=O)OCc1ccccc1` (stereo partly drawn) [NUC-1031, 2′-deoxy-2′,2′-difluoro-D-cytidine-5′-O-[phenyl (benzoxy-L-alaninyl)] phosphate], the “Stability (to precipitation and to degradation)” value in data set [1] (S-isomer alone or mixture of R and S epimers at 4, 8 and 10 mg/mL, 48 hours after dilution in 0.45% and 0.9% saline, pH 4.5, 6.0 and 7.0, not stirred) is given as “stable”. Moreover, in data set [1] (all of the NUC-1031 solutions), the Osmolarity result is “acceptable for peripheral administration”.
On to `C[C@H](NP(=O)(OC[C@@H]1C[C@@H](O)[C@H](n2cnc3c(N)ncnc32)O1)Oc1ccccc1)C(=O)OCc1ccccc1` (stereo partly drawn) [NUC-7738, 3′-deoxyadenosine-5′-O-[phenyl(benzyloxy-L-alaninyl)] phosphate], for which the Solubility (usually the dissolved amount per volume that the medium holds) in data set [2] (5% Tween in water) is reported as less than 11.8 mg/mL; in data set [2] (DMA), more than 667 mg/mL; in data set [2] (DMSO) it was more than 667 mg/mL; in data set [2] (Ethanol), more than 667 mg/mL; in data set [2] (Heptane), less than 12 mg/mL; in data set [2] (NMP), more than 667 mg/mL. The values for the Solubility in data set [2] (Propylene Glycol), in data set [2] (isopropylacetate) and in data set [2] (tbutylmethylether) were more than 667 mg/mL, less than 9 mg/mL and less than 11 mg/mL, respectively. The Appearance result in data set [3] (DMA 25 mg/ml concentrate 100 + Saline 2400) is “White insoluble precipitate from the first drop”; in data set [3] (DMSO 25 mg/ml concentrate 100 + Saline 2400), “White precipitate after addition of 100 μL”; in data set [3] (DMSO 50 mg/ml concentrate 100 + Saline 2400), “White insoluble precipitate from the first drop”; in data set [3] (DMSO 100 mg/ml concentrate 100 + Saline 2400) it was “White insoluble precipitate from the first drop”; in data set [3] (NMP 25 mg/ml concentrate 100 + Saline 2400), “Clear and limpid solution”; in data set [3] (NMP 50 mg/ml concentrate 100 + Saline 2400) it was “White insoluble precipitate from the first drop”. Besides, the Appearance entry was “White insoluble precipitate from the first drop” in data set [3] (NMP 100 mg/ml concentrate 100 + Saline 2400); “White precipitate, milky solution” in data set [4] (100 mg/mL concentrate in BnOH 50 + TW80 50 + Saline 1150); “Clear and limpid solution” in data set [4] (100 mg/mL concentrate in DMA 50 + TW80 50 + Saline 1150); “Clear and limpid solution” in data set [4] (100 mg/mL concentrate in DMSO 50 + TW80 50 + Saline 1150); “White precipitate, milky solution” in data set [4] (100 mg/mL concentrate in EtOH 50 + TW80 50 + Saline 1150); “Clear and limpid solution” in data set [4] (100 mg/mL concentrate in NMP 50 + TW80 50 + Saline 1150). In data set [4] (concentrate in TW80 50 + WFI 50 + Saline 1150), the Appearance entry is “White precipitate, milky solution”. The Assay content entry in data set [4] (setting [5]) is on record as “substantially unchanged”. In addition, the Purity entry in data set [4] (setting [5]) was “substantially unchanged”.

The values are drawn from US12357652B2, “Formulations of phosphoramidate derivatives of nucleoside drugs” (priority 2015, dated 2025).
